The values below are quoted from earlier work in paper PMC6317935 (ChemistryOpen, 2018).

For this data set, the system named is FXR. Particulars: read-out: EC50 (FXR agonist).
For `CC[C@H]1[C@@H](O)[C@@H]2[C@H](CC[C@]3(C)[C@@H]([C@H](C)CCC(=O)O)CC[C@@H]23)[C@@]2(C)CC[C@@H](O)C[C@@H]12` [Compound 1, obeticholic acid], the EC50 (in general, the concentration needed to bring the measured effect to its halfway point) is […].

As for `COC(=O)/C=C/c1cccc(N(Cc2ccc(-c3ccc(N(C)C)cc3)cc2)C(=O)C2CCCCC2)c1` [Compound 3, Fexaramine], the EC50 is 25 nM.

`CC(C)OC(=O)C1=CN(C(=O)c2ccc(F)c(F)c2)CC(C)(C)c2c1[nH]c1ccccc21` [Compound 4, WAY‐362450]: the EC50 was 4 nM.
